# In patent US20210253518A1, “KINASE INHIBITOR” (NISSAN CHEMICAL CORPORATION, priority 2018, published 2021):
# System: TAZ protein
# Assay: Imaging analysis of nuclear translocation in human bone marrow-derived mesenchymal stem cells
# Format: cell-based
# Conditions: 10 μM, 4 hr, no addition 10.05
# Description: (§1) Nine fields of view were imaged per well using a 20× objective lens of Operatta CLS. The cell nucleus region and the cytoplasm region were identified from the obtained fluorescence images by using the analysis software Harmony (manufactured by PerkinElmer), and AlexaFluor® 647 fluorescence intensity per unit area and the AlexaFluor® 555 fluorescence intensity per unit area in each region were extracted. The nuclear translocation was evaluated by calculating the ratio of the fluorescence intensity of the cell nucleus region to the fluorescence intensity of the cytoplasmic region from the extracted values. The value becomes greater than 1 as the YAP protein and TAZ protein transfer into the cell nucleus, and less than 1 when localized in the cytoplasm.
# (§2) Compounds k-1:B-1, k-1:H-1, and k-1:J-1 were evaluated for nuclear translocation of YAP protein and TAZ protein. For the nuclear translocation, imaging analysis was performed using the human bone marrow-derived mesenchymal stem cells (manufactured by PromoCell) and OperettaCLS (manufactured by PerkinElmer) described in Example 4. The compounds were added such that the final concentration of the test concentration of k-1:B-1, k-1:H-1, and k-1:J-1 was 10 μM.
# (§3) Human bone marrow-derived mesenchymal stem cells cultured according to the protocol recommended by PromoCell were seeded on a 96-well plate (manufactured by PerkinElmer, CellCarrier-Ultra) at 25,000 cells/90 μL/well on the cycloolefin bottom surface, and cultured in a CO2 incubator (37° C., 5% CO2) for 1 day. After culturing, k-1:B-1, k-1:H-1, and k-1:J-1 solutions having a concentration of 100 μM were added. The cells were cultured in a CO2 incubator at 37° C. for 4 hr. The medium was exchanged with 4% para-formaldehyde solution, and the cells were fixed by allowing to stand at room temperature for 10 min. The fixed cells were subjected to immunostaining by the method described in Example 4.
row,Compound,TAZ nuclear translocation rate
1,CC/C(=N\NC(=O)C(C)Nc1ccccc1)c1ccc(O)c(C)c1O (stereo not drawn) [k-1:B-1],11.59
2,CCC(=NNC(=O)CNc1ccccc1)c1ccc(O)c(C)c1O [k-1:H-1],13.42
3,CC/C(=N\NC(=O)NCc1cccc(O)c1)c1ccc(O)c(C)c1O [k-1:J-1],14.95

# System: YAP protein
# Assay: as above
# Format: cell-based
# Conditions: 10 μM, 4 hr, no addition 8.96
# Description: as §1, §2, §3
row,Compound,YAP nuclear translocation rate
1,CC/C(=N\NC(=O)C(C)Nc1ccccc1)c1ccc(O)c(C)c1O (stereo not drawn) [k-1:B-1],10.17
2,CCC(=NNC(=O)CNc1ccccc1)c1ccc(O)c(C)c1O [k-1:H-1],11.55
3,CC/C(=N\NC(=O)NCc1cccc(O)c1)c1ccc(O)c(C)c1O [k-1:J-1],12.70

# System: YAP (phospho-S127 and total)
# Assay: YAP phosphorylation inhibitory action in SKOV3 cells (HTRF, YAP-total kit / YAP phospho-S127 kit)
# Format: cell-based, human
# Conditions: 2D condition, 10 μM, 1 hr, Non-treatment as 100%
# Description: Human ovarian cancer cell line SKOV3 (manufactured by DS Pharma Biomedical Co., Ltd) was precultured (single layer culture) in a 15% FBS-containing McCoy's 5a medium (manufactured by Sigma Ltd. Aldrich). The above-mentioned cells in the logarithmic growth phase were washed with PBS, a 0.25% (w/v) trypsin-1 mmol/L ethylenediaminetetraacetic acid (EDTA) solution (manufactured by Fujifilm Wako Pure Chemical Corporation) was added, and adherent cells were detached by incubating at 37° C. for 3 min. The above-mentioned medium was added and the mixture was centrifuged and resuspended in the same medium.
# According to the method of patent document (WO 2014/017513), a composition of 10% FBS-containing DMEM medium (Phenol-red free, manufactured by FUJIFILM Wako Pure Chemical Corporation) containing 0.015% (w/v) deacylated gellan gum (KELCOGEL CG-LA, manufactured by SANSHO Co., Ltd.) was prepared using FCeM-series Preparation Kit (manufactured by FUJIFILM Wako Pure Chemical Corporation). Then, various cells prepared above were suspended in the above-mentioned medium composition (3D conditions) added with deacylated gellan gum or a medium without the addition (2D conditions), and seeded on a 50 μL/well (manufactured by Corning Incorporated, 96 well flat bottom plate, #3585, 2D conditions) or 25 μL/well (manufactured by Corning Incorporated, 96 well low adhesion flat bottom plate, #3474) at 100000 cells/well. The plate was allowed to stand at 37° C. in a 5% CO2 incubator, and the compound of the present invention diluted with the medium at 2 or 6 times the final concentration, DMSO, or the medium alone was added to the plate 3 hr after the seeding at 50 μL/well (2D conditions) or 5 μL/well (3D conditions) to make the final concentration of each compound 10 μM. After culture at 37° C. in a 5% CO2 incubator for 1 hr, the supernatant was aspirated, supplemented Lysis buffer (1-fold concentration, manufactured by Cisbio, YAP-total kit or YAP phospho-S127 kit) (50 μL) was added under 2D conditions, and supplemented Lysys buffer (4-fold concentration) (10 μL) was added to the culture supernatant under 3D conditions, and the mixture was stirred by a plate shaker for 30 min. Thereafter, the plate was centrifuged, 16 μL of the supernatant was transferred to a 384-well white plate (Corning, #4512), and each antibody solution (pYAP d2 antibody or Total-YAP d2 antibody, and pYAP Cryptate antibody or Total-YAP Cryptate antibody) included in the kit was added at 4 μL/well in total, and the mixture was allowed to stand at room temperature overnight. As a blank control, pYAP Cryptate antibody or Total-YAP Cryptate antibody alone was added to cells free of stimulation with compound and the mixture was treated in the same manner (Non-treatment). The next day, the wavelengths at 665 nm and 615 nm were measured in the HTRF mode of EnVision (manufactured by PerkinElmer).
# The obtained signal was calculated as follows. Ratio=signal (665 nm)/signal (615 nm)×10000, ΔR=Signal(Ratio)−Background fluorescence, and the relative value with respect to ΔR of the compound non-addition group (Non-treatment) as 100% was calculated, and the phosphorylated YAP amount or total YAP amount by each compound was evaluated.
Compound,phosphorylated YAP (%),total YAP (%)
CC/C(=N\NC(=O)C(C)Nc1ccccc1)c1ccc(O)c(C)c1O (stereo not drawn) [k-1:B-1],14,89
CCC(=NNC(=O)CNc1ccccc1)c1ccc(O)c(C)c1O [k-1:H-1],38,94
CC/C(=N\NC(=O)NCc1cccc(O)c1)c1ccc(O)c(C)c1O [k-1:J-1],13,86

# Same assay, conditions: 3D condition, 10 μM, 1 hr, Non-treatment as 100%
Compound,phosphorylated YAP (%),total YAP (%)
CC/C(=N\NC(=O)C(C)Nc1ccccc1)c1ccc(O)c(C)c1O (stereo not drawn) [k-1:B-1],31,99
CCC(=NNC(=O)CNc1ccccc1)c1ccc(O)c(C)c1O [k-1:H-1],80,107
CC/C(=N\NC(=O)NCc1cccc(O)c1)c1ccc(O)c(C)c1O [k-1:J-1],30,109
